Laboratory results published in patent US20230041980A1, “METHOD OF PROTECTING A RESPIRATORY TRACT OR A LUNG FROM DAMAGE, METHOD OF PROTECTING A LUNG FROM PRESSURE DAMAGE INDUCED BY A VENTILATOR, METHOD OF SUPPRESSING SPREAD OF INFECTION WITH VIRUSES OR BACTERIA THAT CAUSE PNEUMONIA IN PULMONARY BRONCHIAL EPITHELIAL CELLS OR ALVEOLAR EPITHELIAL CELLS, AND …” (NEXT21 KABUSHIKI KAISHA, priority 2020, published 2023).

Experiments:
[1] = tested on: Asthma model mice; assay: Airway resistance and compliance of OVA asthma model mice; format: in vivo, BALB/c mice; conditions: versus amount of muscarine receptor stimulant, inhalation, compared with OVA/OVA; for airway resistance: FIG. 2A; for compliance: FIG. 2B
Protocol: (§1) Asthma model mice were produced using BALB/c mice (8 to 10 weeks old) and ovalbumin (OVA) serving as an antigen, and examinations were conducted by administering trehalose by inhalation. On the first day and the fourteenth day, a physiological saline solution or OVA was intraperitoneally administered. 20 micrograms of OVA was administered to one mouse using aluminum hydroxide as an adjuvant. From the twenty-seventh day to the thirty-first day, 10% trehalose or distilled water was administered by inhalation for 20 minutes every day. Moreover, from the twenty-eighth day to the thirtieth day, a physiological saline solution or 1% OVA was administered by inhalation for 20 minutes, 1 to 1.5 hours after the above-mentioned inhalation. On the thirty-second day, evaluation was conducted using an assay system for evaluating allergic airway inflammation and hyperresponsive airway.
The airway resistance and the compliance of the model mice of Example 1 were measured. […] On the other hand, FIGS. 2A and 2B also show the results of the experiment in which lactose was used instead of trehalose (OVA/OVA+Lac).

[2] = tested on: Asthma model mice; assay: Numbers of inflammation-inducing cells in bronchoalveolar lavage fluid; format: in vivo, BALB/c mice; conditions: inhalation; compared with OVA/OVA; FIG. 4
Protocol: as §1, with “airway. Bronchoalveolar lavage was performed on the model mice of Example 1, and the numbers of various cells obtained through the bronchoalveolar lavage were compared and examined. It should be noted that, in this example, 0.5 mL of a physiological saline solution containing 50 μg of ovalbumin (OVA) and 1 mg of aluminum hydroxide gel serving as an adjuvant was administered to OVA-administration mice (OVA/OVA) […]. […]” for “airway.”

[3] = tested on: IgE antibody; assay: IgE antibody levels in serum of OVA asthma model mice; format: in vivo, BALB/c mice; conditions: 10% trehalose by inhalation 20 min daily, day 27-31, OVA/OVA+Treh vs OVA/OVA, P<0.05
Protocol: as §1, with “airway. FIGS. 1A and 1B show the measurement results of the IgE antibodylevels in the serum. […] Suppressing the production of IgE antibodies makes it possible to suppress an increase in the severity of pulmonary tissue lesion caused by cytokine storm, which is an overreaction of the immune system caused by chemical mediators from mast cells. […]” for “airway.”

[4] = tested on: alveolar epithelial cells; assay: Pulmonary tissue sections, H.E. and PAS staining, asthma model mice; format: in vivo, BALB/c mice; conditions: primary inhalation of trehalose, FIGS. 3A, 3B
Protocol: as §1, with “airway. Pulmonary tissue pathological sections were produced from the model mice of Example 1, and the diseases state was observed through hematoxylin-eosin (H.E.) staining and periodic acid-Schiff (PAS) staining. FIGS. 3A and 3B show the results of H.E. staining and the results of PAS staining, respectively.” for “airway.”

[5] = tested on: IL-4; assay: IL-4 level in bronchoalveolar lavage fluid (ELISA); format: in vivo, BALB/c mice; conditions: OVA/OVA+Treh vs OVA/OVA, FIG. 5A
Protocol: as §1, with “airway. Bronchoalveolar lavage was performed on the model mice of Example 1, and the numbers of various cells obtained through the bronchoalveolar lavage were compared and examined. […] The cytokine levels in the bronchoalveolar lavage fluids obtained in Example 4 were measured using an ELISA measurement kit. […] It should be noted that interferon (IFN-γ) was not detected from any of the groups. […]” for “airway.”

[6] = tested on: IL-5; assay: IL-5 level in bronchoalveolar lavage fluid (ELISA); format: in vivo, BALB/c mice; conditions: OVA/OVA+Treh vs OVA/OVA, FIG. 5B
Protocol: as §1, with “airway. Bronchoalveolar lavage was performed on the model mice of Example 1, and the numbers of various cells obtained through the bronchoalveolar lavage were compared and examined. […] The cytokine levels in the bronchoalveolar lavage fluids obtained in Example 4 were measured using an ELISA measurement kit. […] It should be noted that interferon (IFN-γ) was not detected from any of the groups. […]” for “airway.”

[7] = tested on: IL-13; assay: IL-13 level in bronchoalveolar lavage fluid (ELISA); format: in vivo, BALB/c mice; conditions: OVA/OVA+Treh vs OVA/OVA, FIG. 5C
Protocol: as §1, with “airway. Bronchoalveolar lavage was performed on the model mice of Example 1, and the numbers of various cells obtained through the bronchoalveolar lavage were compared and examined. […] The cytokine levels in the bronchoalveolar lavage fluids obtained in Example 4 were measured using an ELISA measurement kit. […] It should be noted that interferon (IFN-γ) was not detected from any of the groups. […]” for “airway.”

[8] = tested on: RAW264.7 cells (macrophages); assay: Lipid peroxides (LPO) in cells treated with hemolysate; format: cell-based; conditions: 5% trehalose, 10% hemolysate for 3 hours, FIG. 6A
Protocol: (§2) Suppression of PLA2 activation caused by applying hydrogen peroxide stimulus to RAW264.7 cells (macrophages) was measured using [^3H]-AA release assay. FIGS. 6A and 6B show the measurement results showing the influence of trehalose on hemolysate or oxygen free radicals. FIGS. 6A and 6B show the measurement results in the case where a culture medium or hemolysate contains a physiological saline solution (Sal), 5% trehalose (Ire), or 5% maltose (Mal). […] In this experiment, RAW264.7 cells were treated with 10% hemolysate for 3 hours. The hemolysate was prepared as a supernatant by suspending erythrocytes of a Wistar rat in a saline solution, an aqueous solution of trehalose, or an aqueous solution of maltose, sonicating the resulting suspension, and then centrifuging the suspension. The LPO level was measured through a colorimetric analysis using a divalent iron molecule. […] In this experiment, RAW264.7 cells were labeled with [3H] arachidonic acid overnight and then treated with hydrogen peroxide for 3 hours. The level of released arachidonic acid was quantified by measuring the radioactivity of the collected culture medium.

[9] = tested on: RAW264.7 cells (macrophages); assay: [3H]-arachidonic acid release after hydrogen peroxide stimulus; format: cell-based; conditions: 5% trehalose, hydrogen peroxide for 3 hours, FIG. 6B
Protocol: as §2

[10] = tested on: TNF-α; assay: TNF-α induced by homogenized cell lysate (ELISA); format: cell-based; conditions: RAW264.7 cells
[11] = tested on: IL-1α; assay: IL-1α induced by homogenized cell lysate (ELISA); format: cell-based; conditions: lysate homogenized in 10% aqueous trehalose vs saline; RAW264.7 cells, 8 hours; FIG. 7B
[12] = tested on: prostaglandin E2; assay: Prostaglandin E2 induced by homogenized cell lysate (EIA); format: cell-based; conditions: lysate homogenized in 10% aqueous trehalose vs saline; RAW264.7 cells, 8 hours; FIG. 7C
[13] = tested on: TGF-β1; assay: TGF-β1 induced by homogenized cell lysate (ELISA); format: cell-based; conditions: lysate homogenized in 10% aqueous trehalose vs saline; RAW264.7 cells, 8 hours; acid-treated medium; FIG. 7D
Protocol: Moreover, RAW264.7 cells cultured in a 225-cm^2 flask were homogenized in a physiological saline solution (saline) or a 10% aqueous solution of trehalose (trehalose) using a homogenizer, and cell lysate was thus prepared. The above-mentioned cell lysate was added to RAW264.7 cells that were being cultured in 6 wells, and the cells were cultured for another 8 hours. Then, the culture medium was collected. The culture medium was treated with acid, and then TGF-β1 in the culture medium was measured using ELISA (manufactured by R&D Systems).
In the above-mentioned tests, the cell lysate obtained through homogenization using a homogenizer was used as a model of cell disruption caused by damage (including a surgical operation).

[14] = tested on: TNF-α; assay: TNF-α induced by heat-shocked dead cell solution (ELISA); format: cell-based; conditions: 10% aqueous trehalose vs saline added to cell solution (53° C. 10 minutes); RAW264.7 cells, 8 hours; FIG. 7E
Protocol: Moreover, RAW264.7 cells cultured in a 225-cm^2 flask were collected, and heat shock was applied to the cells at 53° C. for 10 minutes. Then, the cells were left to stand at 37° C. for 5 hours to induce cell death, and the resulting solution was used as a cell solution. Thereafter, a physiological saline solution (saline) or a 10% aqueous solution of trehalose (trehalose) was added to the cell solution, and the resulting solution was treated on ice for 30 minutes. The above-mentioned cell solution was added to RAW264.7 cells that were being cultured in 6 wells, and the cells were cultured for another 8 hours. Then, TNF-α was measured using ELISA (manufactured by R&D Systems).
In this test, the cell solution including dead cells induced by heat shock was used as a model of cell disruption caused by a burn.

[15] = tested on: oral epithelial cell line (Ca9-22); assay: LIVE/DEAD assay after drying stimulus; format: cell-based; conditions: 7.5% trehalose pretreatment 15 minutes, dried 7 minutes, FIG. 8A
[16] = tested on: PLA2; assay: Released [3H]-arachidonic acid after drying stimulus (PLA2 activation); format: cell-based; conditions: 7.5% trehalose pretreatment 15 minutes, dried 7 minutes; Ca9-22; FIG. 8B
Protocol: The oral epithelial cell line (Ca9-22) maintained in DMEM-10% FBS was treated with [^3H]-arachidonic acid overnight. Pretreatment with a physiological saline solution (Sal), 7.5% trehalose (Tre), or 7.5% maltose (Mal) was conducted for 15 minutes, and then the cells were dried for 7 minutes. Subsequently, a culture medium was added, and then the cells were cultured for 1 hour.

Row | Compound | airway resistance [1] | compliance [1] | numbers of inflammation-inducing cells in bronchoalveolar lavage fluid (Total, Mo, Ly, Eo, Nt) [2] | total IgE level in serum ([3]; FIG. 1A) | level of IgE specific to the antigen (ovalbumin) in serum ([3]; FIG. 1B) | damage to alveolar epithelial cells (inflammatory cell infiltration, goblet cell hyperplasia) [4] | IL-4 level in bronchoalveolar lavage fluid [5] | IL-5 level in bronchoalveolar lavage fluid [6] | IL-13 level in bronchoalveolar lavage fluid [7] | lipid peroxides (LPO) level [8] | level of released arachidonic acid [9] | dose dependence of suppression of the TNT-α production ([10]; cell lysate model) | TNF-α level induced by cell lysate ([10]; lysate homogenized in 10% aqueous trehalose vs saline, 8 hours, FIG. 7A) | IL-1α level induced by cell lysate [11] | prostaglandin E2 level induced by cell lysate [12] | TGF-β1 level induced by cell lysate [13] | TNF-α level induced by heat-shocked cell solution [14] | cell death caused by drying stimulus (LIVE/DEAD assay) [15] | PLA2 activation caused by drying stimulus (released arachidonic acid) [16]
1 | OC[C@H]1O[C@@H](O[C@H]2[C@H](O)[C@@H](O)C(O)O[C@@H]2CO)[C@H](O)[C@@H](O)[C@H]1O (stereo partly shown) [lactose, reference compound] | does not have an action of suppressing an increase in the airway resistance | not different from each other | does not have an action of suppressing the release of inflammation-inducing cells | – | – | – | – | – | – | – | – | – | – | – | – | – | – | – | –
2 | OC[C@H]1O[C@H](O[C@H]2O[C@H](CO)[C@@H](O)[C@H](O)[C@H]2O)[C@H](O)[C@@H](O)[C@@H]1O [trehalose] | significantly reduced the airway resistance | significantly increased the compliance | significantly reduced cell release | significantly reduce the production amount of IgE | significantly reduce the production amount of IgE | suppress damage to the alveolar epithelial cells | significantly suppress the expression of cytokines | significantly suppress the expression of cytokines | significantly suppress the expression of cytokines | protecting cells from oxygen free radicals and hemolysate | protecting cells from oxygen free radicals and hemolysate | depends on the dosage of trehalose | significantly reduced | significantly reduced | significantly reduced | significantly reduced | significantly reduced | suppresses cell death caused by drying stimulus | suppresses PLA2 activation caused by drying stimulus
